Assay results published in patent publication US20220170930A1, “METHOD FOR SCREENING COMPOUND FOR TREATING OR PREVENTING POLYQ-RELATED NEURODEGENERATIVE DISEASES” (FUDAN UNIVERSITY, priority 2019, published 2022).
Structures can show the parent of a compound that is named as a salt.

How the values were obtained:
mHTT [1] = assay: HTRF mHTT level in HD patient immortalized fibroblasts; conditions: for mHTT level: c-Raf inhibitors and KSP inhibitors at 100 nM; for mHTT levels, comparison of FIG. 9: concentrations below the micromolar level
Procedure: Homogeneous time-resolved fluorescence (HTRF) analysis: the cell or tissue lysate was diluted with the original lysis buffer PBS+1% (v/v) Triton X-100+1×cOmplete™ protease inhibitor to lyse the sample, then HTRF assay buffer (50 mM NaH2PO4, 400 mM NaF, 0.1% BSA, 0.05% (v/v) Tween-20, 1% (v/v) Triton X-100, pH 7.4) was used to dilute the specified antibody pair for detection.
The immortalized fibroblasts of HD patients were treated using the above-mentioned c-Raf inhibitors and KSP inhibitors respectively at a concentration of 100 nM.

GFP = assay: OI-RD affinity screening with GFP; format: binding; conditions: OI-RD difference images
Procedure: (§1) To identify compound(s) that can selectively bind to proteins containing expanded polyglutamine, screening was conducted using a method similar to 1.1, except for that the target protein HTTexon1-Q72-MBP in step (1) of 1.1 was replaced with the polyQ-GFP protein prepared in 10.1, and the target protein HTTexon1-Q25-MBP in step (2) of 1.1 was replaced with GFP.

[2] = target: T1, mutant ATXN3 protein (ATXN3-Q74) (Homo sapiens, UniProt P54252, G306R/INS305QQQQQQQQQQQQQQQQQQQQQQQQQQQQQQQQQQQQQQQQQQQQQQQQQQQQQQQQQQQQQQQQ/V212M); assay: Western-blot mutant ATXN3 level in SCA3 patient fibroblasts; format: cell-based; conditions: 100 nM (compound 4: 50 nM), 2 days
T1 construct: endogenous in cells; host or cells: SCA3 patient fibroblasts (Q74)
Procedure: (§2) Then the levels of mutant ATXN3 protein (ATXN3-Q74, SEQ ID NO: 2) and wild-type ATXN3 protein (ATXN3-Q27, SEQ ID NO: 7) were determined by Western-blots (FIG. 26). […] Therefore, the compound of the present invention can be used to treat SCA3.

SQSTM1/p62 = SQSTM1/p62 level in mouse cortices after ip injection; format: in vivo; conditions: HD mice
Procedure: Using a method similar to 6.2, Hdh^Q140/Q7 mice were administered with injections. A method similar to 7.1 was used to detect the effects of ip-injection of compounds on other known autophagy selective substrate proteins (SQSTM1/p62) in the cortical tissue of Hdh^Q140/Q7 mice.

mHTT [3] = assay: Intracerebroventricular injection, mHTT and wtHTT in cortices of HD mice; format: in vivo, mouse; conditions: mouse, in vivo
Procedure: Experimental animals: Hdh^Q140/Q7 mice (3 months old), 4 in each group.
Each test includes three repetitions for each sample, and the mean values was calculated (FIG. 16).

[4] = tested on: polyQ-GFP (Q72-GFP, Q25-GFP); assay: polyQ-GFP level in HEK293T cells by Incucyte fluorescence counting; format: cell-based; conditions: Q72-GFP vs Q25-GFP expressing HEK293T cells, 100 nM compound 1, 100 nM compound 3 or 50 nM compound 4, 2 days
Description: (1) PolyQ-GFP cDNA sequence (expressing Met-polyQ-GFP, wherein polyQ was Q72 or Q25) was synthesized de novo and subcloned into pcDNA vector. It was transfected into HEK293T cells (ATCC, CRL-3216) through forward transfection to obtain Q72-GFP expressing cells and Q25-GFP expressing cells, respectively. And the same method was used to obtain cells expressing Q53-GFP, cells expressing Q46-GFP, and cells expressing Q38-GFP.
The Q72-GFP expressing cells and Q25-GFP expressing cells obtained in step (1) of 10.1 were used. […] Then the level of polyQ-GFP was measured by Incucyte fluorescence counting (FIG. 25).

in vivo = conditions: mouse, ip, 0.5 mg/kg
Procedure: Experimental method: The compound or control DMSO was diluted with 0.9% NaCl intravenous infusion solution to 0.05 μg/μL. One ip-injection (0.5 mg/kg) was conducted per day. After 14 days of injection, tissue extraction or behavioral experiment were conducted.

Q25-GFP [5] = assay: MST affinity with Q25-GFP
Procedure: The affinity of the compound with full-length HTT and LC3B was verified with micro thermophoresis (MST) using Monolith NT.115 instrument from NanoTemper Technologies. The reaction buffer was 20 mM HEPES, pH 7.4, 150 mM NaCl.

Q25-GFP [6] = assay: OI-RD affinity screening with Q25-GFP; format: binding; conditions: OI-RD difference images
Description: (1) PolyQ-GFP cDNA sequence (expressing Met-polyQ-GFP, wherein polyQ was Q72 or Q25) was synthesized de novo and subcloned into pcDNA vector. […] And the same method was used to obtain cells expressing Q53-GFP, cells expressing Q46-GFP, and cells expressing Q38-GFP.

[7] = target: T2, wild-type ATXN3 protein (ATXN3-Q27) (Homo sapiens, UniProt P54252, G306R/INS305QQQQQQQQQQQQQQQQQ/V212M); assay: Western-blot wild-type ATXN3 level in fibroblasts; format: cell-based; conditions: 100 nM (compound 4: 50 nM), 2 days
T2 construct: endogenous in cells; host or cells: wild-type fibroblasts (Q27) and/or the normal allele in SCA3 patient fibroblasts
Procedure: as §2

MBP-ATXN3-Q28 [8] = target: T3, MBP-ATXN3-Q28 (Homo sapiens, UniProt P54252, INS305QQQQQQQQQQQQQQQQQQ); assay: OI-RD affinity screening with MBP-ATXN3-Q28; format: binding; conditions: OI-RD difference images
T3 construct: His8 with TEV protease cleavage site; made in house; host or cells: Escherichia coli Rosetta(DE3)pLsyS
Procedure: (§3) Screening was conducted using a method similar to 1.1, except for that the target protein HTTexon1-Q72-MBP in step (1) of 1.1 was replaced with MBP-ATXN3-Q68 and the target protein HTTexon1-Q25-MBP in step (2) of 1.1 was replaced with MBP-ATXN3-Q28, to obtain compounds that can selectively bind to ATXN3 with abnormally expanded polyQ (MBP-ATXN3-Q68).

MBP-ATXN3-Q28 [9] = target: T3, MBP-ATXN3-Q28; assay: MST affinity with MBP-ATXN3-Q28; format: binding
Procedure: Protein concentration was 500 nM.

His-ATXN1-Q92 = target: T4, His-ATXN1-Q92 (Homo sapiens, UniProt P54253, INS208QQQQQQQQQQQQQQQQQQQQQQQQQQQQQQQQQQQQQQQQQQQQQQQQQQQQQQQQQQQQQQQQQQQQQQQQQQQQQQQQ); assay: OI-RD affinity screening with His-ATXN1-Q92; format: binding; conditions: OI-RD difference images
T4 construct: made in house; host or cells: HEK293T cells (ATCC, CRL-3216)
Procedure: (1) PolyQ-ATXN1 cDNA (where polyQ is Q92) was synthesized de novo and subcloned into pcDNA vector. It transfected into HEK293T cells (ATCC, CRL-3216) to obtain cells expressing His-ATXN1-Q92 (SEQ ID NO: 3 with a His tag at the N-terminal).
(2) The His-ATXN1-Q92 expressed in (1) was purified to obtain ATXN1 with abnormally expanded polyQ.
To identify compound(s) that can bind to ATXN1 with abnormally expanded polyQ, screening was conducted using a method similar to step (1) of 1.1, except for that the target protein HTTexon1-Q72-MBP in step (1) of 1.1 was replaced with His-ATXN1-Q92.

[10] = target: T5, mutant ATXN1 protein (His-ATXN1-Q92) (Homo sapiens, UniProt P54253, INS208QQQQQQQQQQQQQQQQQQQQQQQQQQQQQQQQQQQQQQQQQQQQQQQQQQQQQQQQQQQQQQQQQQQQQQQQQQQQQQQQ); assay: HTRF mutant ATXN1 level in His-ATXN1-Q92-expressing cells; format: cell-based; conditions: 100 nM, 2 days, anti-His-Tb/MW1-D2
T5 construct: expressed in transfected cells; host or cells: HEK293T cells (ATCC, CRL-3216)

[11] = tested on: proteins with expanded polyglutamine (polyQ-GFP); assay: OI-RD affinity screening with polyQ-GFP proteins; format: binding; conditions: OI-RD difference images
Procedure: as §1

MBP-ATXN3-Q68 = MBP-ATXN3-Q68 (Homo sapiens, UniProt P54252, INS305QQQQQQQQQQQQQQQQQQQQQQQQQQQQQQQQQQQQQQQQQQQQQQQQQQQQQQQQQQ); assay: OI-RD affinity screening with MBP-ATXN3-Q68; format: binding; set-up: His8 with TEV protease cleavage site; made in house; host or cells: Escherichia coli Rosetta(DE3)pLsyS; conditions: OI-RD difference images
Procedure: as §3

T3 sequence (P54252 with tags, fused parts or gaps isoform P54252-4 with the stated changes): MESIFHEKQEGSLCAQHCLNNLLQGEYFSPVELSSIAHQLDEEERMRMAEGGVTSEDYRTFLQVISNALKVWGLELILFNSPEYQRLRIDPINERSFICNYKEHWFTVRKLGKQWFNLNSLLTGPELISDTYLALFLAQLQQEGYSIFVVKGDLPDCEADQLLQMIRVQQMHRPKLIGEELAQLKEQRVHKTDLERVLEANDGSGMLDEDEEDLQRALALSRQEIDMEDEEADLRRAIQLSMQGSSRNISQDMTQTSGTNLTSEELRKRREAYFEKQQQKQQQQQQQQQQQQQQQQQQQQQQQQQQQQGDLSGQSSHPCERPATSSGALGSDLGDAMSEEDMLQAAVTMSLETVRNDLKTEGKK
T2 sequence (P54252 with tags, fused parts or gaps isoform P54252-1 with the stated changes): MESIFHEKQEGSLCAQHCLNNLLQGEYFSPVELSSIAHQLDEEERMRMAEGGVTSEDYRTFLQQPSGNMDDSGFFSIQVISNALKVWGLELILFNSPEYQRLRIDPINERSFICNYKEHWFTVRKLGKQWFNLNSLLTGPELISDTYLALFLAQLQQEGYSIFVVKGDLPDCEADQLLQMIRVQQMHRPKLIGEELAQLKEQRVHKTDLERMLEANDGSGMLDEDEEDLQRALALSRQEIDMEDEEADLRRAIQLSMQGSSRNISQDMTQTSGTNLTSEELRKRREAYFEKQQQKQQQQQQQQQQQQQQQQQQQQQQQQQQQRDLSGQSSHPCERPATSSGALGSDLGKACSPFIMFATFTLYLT
T1 sequence (P54252 with tags, fused parts or gaps isoform P54252-1 with the stated changes): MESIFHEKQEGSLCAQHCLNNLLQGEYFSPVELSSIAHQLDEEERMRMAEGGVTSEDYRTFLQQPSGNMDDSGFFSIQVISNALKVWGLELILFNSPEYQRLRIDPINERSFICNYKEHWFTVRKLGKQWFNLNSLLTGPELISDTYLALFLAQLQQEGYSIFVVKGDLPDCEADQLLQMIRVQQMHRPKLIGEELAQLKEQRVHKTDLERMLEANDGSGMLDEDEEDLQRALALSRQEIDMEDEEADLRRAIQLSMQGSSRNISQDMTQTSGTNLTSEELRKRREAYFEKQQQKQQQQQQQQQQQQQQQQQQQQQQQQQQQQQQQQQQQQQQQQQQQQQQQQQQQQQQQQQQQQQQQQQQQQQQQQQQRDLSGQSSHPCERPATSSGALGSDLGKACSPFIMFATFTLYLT
T5 sequence (P54253 with tags, fused parts or gaps with the stated changes): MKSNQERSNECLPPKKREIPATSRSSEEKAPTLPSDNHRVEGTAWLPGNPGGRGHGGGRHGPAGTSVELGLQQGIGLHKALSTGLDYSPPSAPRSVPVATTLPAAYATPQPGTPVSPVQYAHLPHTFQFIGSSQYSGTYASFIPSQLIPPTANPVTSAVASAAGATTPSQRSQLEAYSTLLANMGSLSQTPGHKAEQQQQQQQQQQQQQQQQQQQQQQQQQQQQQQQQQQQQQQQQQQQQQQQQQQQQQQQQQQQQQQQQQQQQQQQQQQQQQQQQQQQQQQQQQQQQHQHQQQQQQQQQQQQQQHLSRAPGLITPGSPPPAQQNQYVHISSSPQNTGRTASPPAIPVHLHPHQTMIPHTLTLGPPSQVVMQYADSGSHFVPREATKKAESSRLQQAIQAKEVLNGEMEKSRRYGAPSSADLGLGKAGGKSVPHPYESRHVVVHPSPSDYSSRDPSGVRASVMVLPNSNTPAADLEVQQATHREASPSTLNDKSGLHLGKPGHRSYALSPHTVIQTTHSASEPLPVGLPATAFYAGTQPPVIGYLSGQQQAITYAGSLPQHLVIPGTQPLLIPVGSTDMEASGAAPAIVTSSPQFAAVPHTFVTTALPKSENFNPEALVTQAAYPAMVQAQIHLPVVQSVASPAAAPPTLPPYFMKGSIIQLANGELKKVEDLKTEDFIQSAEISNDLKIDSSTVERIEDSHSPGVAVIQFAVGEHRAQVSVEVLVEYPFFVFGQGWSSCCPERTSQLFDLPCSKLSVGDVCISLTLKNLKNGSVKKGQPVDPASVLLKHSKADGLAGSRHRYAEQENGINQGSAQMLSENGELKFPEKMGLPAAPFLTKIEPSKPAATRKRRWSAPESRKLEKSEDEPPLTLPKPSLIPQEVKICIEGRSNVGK
T4 sequence (P54253 with tags, fused parts or gaps with the stated changes): as above
Chain of MBP-ATXN3-Q68 (P54252 with tags, fused parts or gaps isoform P54252-4 with the stated changes): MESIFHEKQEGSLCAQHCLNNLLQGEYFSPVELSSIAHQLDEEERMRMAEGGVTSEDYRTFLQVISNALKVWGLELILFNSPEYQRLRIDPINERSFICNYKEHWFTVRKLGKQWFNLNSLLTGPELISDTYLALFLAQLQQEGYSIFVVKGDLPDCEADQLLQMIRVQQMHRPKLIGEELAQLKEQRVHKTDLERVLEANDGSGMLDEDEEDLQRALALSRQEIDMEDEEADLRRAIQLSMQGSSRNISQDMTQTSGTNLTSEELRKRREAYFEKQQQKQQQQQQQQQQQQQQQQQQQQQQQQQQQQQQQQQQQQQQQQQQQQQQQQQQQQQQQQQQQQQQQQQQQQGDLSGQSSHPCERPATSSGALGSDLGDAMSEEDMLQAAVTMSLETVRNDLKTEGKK

SMILES: CNC(=O)c1cc(Oc2ccc(NC(=O)Nc3ccc(Cl)c(C(F)(F)F)c3)cc2)ccn1 [Sorafenib Tosylate]
- mHTT level (mHTT [1]): No decrease in mHTT level was observed

SMILES: CC(C)Oc1ccc(C(=O)N[C@H](CNC(=O)CN(C)C)Cc2ccc(-c3cn4cccc([C@H](C)O)c4n3)cc2)cc1Cl [GSK923295]
- mHTT level (mHTT [1]): No decrease in mHTT level was observed

SMILES: CC(C)(C)c1nc(-c2cccc(NS(=O)(=O)c3c(F)cccc3F)c2F)c(-c2ccnc(N)n2)s1 [Dabrafenib]
- mHTT level (mHTT [1]): No decrease in mHTT level was observed

SMILES: CCCS(=O)(=O)Nc1ccc(F)c(C(=O)c2c[nH]c3ncc(Cl)cc23)c1F [PLX-4720]
- mHTT level (mHTT [1]): No decrease in mHTT level was observed
- mHTT levels, comparison of FIG. 9 (mHTT [1]): did not reduce mHTT levels

SMILES: O=c1cc(-c2ccccc2)c2c(O)cc(O)cc2o1 [compound 4]
- binding to GFP (GFP): did not bind
- mutant ATXN3 protein level [2]: A decrease in mutant ATXN3 protein level was observed
- level of SQSTM1/p62 in the cortices (SQSTM1/p62): did not change
- mHTT level in cortices (mHTT [3]): significantly reduced mHTT level
- level of proteins containing expanded polyglutamine in cells (polyQ-GFP) [4]: can selectively reduce the level
- concentration at 2 h (in vivo): 9.48 ng/g
- binding affinity to Q25-GFP (Q25-GFP [5]): no binding affinity
- mHTT levels, comparison of FIG. 9 (mHTT [1]): reduces mHTT levels
- binding to Q25-GFP (Q25-GFP [6]): did not bind
- wild-type ATXN3 protein level [7]: no decrease in wild-type ATXN3 protein level was observed
- binding to MBP-ATXN3-Q28 (MBP-ATXN3-Q28 [8]): did not bind
- binding affinity with normal ATXN3 protein (MBP-ATXN3-Q28) (MBP-ATXN3-Q28 [9]): no binding affinity
- binding to His-ATXN1-Q92 (His-ATXN1-Q92): can bind
- level of mutant ATXN1 protein (His-ATXN1-Q92) [10]: Decreased levels of mutant ATXN1 were observed
- binding affinity to proteins with 38 or more glutamine repeats [11]: showed certain binding affinity
- binding to MBP-ATXN3-Q68 (MBP-ATXN3-Q68): binded

SMILES: COc1ccc(Oc2cc(NCCC(F)(F)F)c3ncc(-c4ccc(C(=O)NC5CC5)c(C)c4)n3n2)c(F)c1F [BAY1217389]
- mHTT level (mHTT [1]): No decrease in mHTT level was observed
- mHTT levels, comparison of FIG. 9 (mHTT [1]): did not reduce mHTT levels
